These results are taken from patent publication US6395499B1, “Methods of identifying modulators of a DP prostaglandin receptor” (Merck Frosst Canada & Co., priority 1995, dated 2002).

The target of assay [1] is T1, human prostaglandin D2 (DP) receptor (Homo sapiens, UniProt Q13258).
T1 construct: The full length coding cDNA was constructed as follows; expressed in transfected cells
T1 sequence (Q13258 1-359): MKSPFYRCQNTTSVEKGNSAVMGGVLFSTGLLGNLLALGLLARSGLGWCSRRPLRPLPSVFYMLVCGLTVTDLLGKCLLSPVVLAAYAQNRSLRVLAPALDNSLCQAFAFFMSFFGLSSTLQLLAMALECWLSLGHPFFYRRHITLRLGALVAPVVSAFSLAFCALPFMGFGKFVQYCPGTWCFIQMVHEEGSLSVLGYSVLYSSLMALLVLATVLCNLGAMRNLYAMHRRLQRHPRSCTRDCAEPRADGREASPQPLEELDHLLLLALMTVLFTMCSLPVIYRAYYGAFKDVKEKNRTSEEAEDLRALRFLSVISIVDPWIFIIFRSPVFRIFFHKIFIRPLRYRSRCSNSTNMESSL
Description: [3H]PGD2 specific binding assay, membranes of pcDNA3-hDP transfected COS-M6 cells. The following applies: 0.87 nM [3H]PGD2, 60 min at 30° C., pH 7.0, read-out: Ki, competition for [3H]PGD2 specific binding. Here is the method: FIG. 3—Competition for [^3H]PGD2 specific binding to pcDNA3-hDP transfected COS-M6 membranes. [^3H]PGD2 binding assays were performed as described in Example 6. The percentage maximum [^3H]PGD2 specific binding at each competing ligand concentration was determined for PGD2 (▪), the DP receptor agonist BW245C (●), the DP antagonist BW868C (♦), PGE2 (▴), PGF2a (▾), iloprost (□) and the TP-receptor agonist U46619 (∘), over a concentration range up to 100 μM.
The recently cloned human prostaglandin D2 (DP) receptor was subcloned into the pcDNA3 plasmid (Invitrogen) and transfected into COS-M6 cells by the cationic liposome-mediated transfer of DNA using LiofectAMINE reagent (GIBCO/BRL). The cells were maintained in culture for 72 h, then harvested and membranes prepared by differential centrifugation (1000×g for 10 min, then 100,000×g for 30 min) following lysis of the cells by nitrogen cavitation. [^3H]PGD2 specific binding assays were performed in 10 mM BES adjusted to pH 7.0 with KOH and containing 1.0 mM EDTA, 10 mM MnCl2, 0.87 nM [^3H]PGD2 and […] of protein from the 100,000×g membrane fraction. Incubations were conducted for 60 min at 30° C. prior to separation of the bound and free radioligand by rapid filtration through Whatman GF/B filters presoaked at 4° C. in washing buffer (10 mM BES/KOH (pH 7.0) containing 0.01% (w/v)bovine serum albumin). The filters were washed with approximately 16 ml of washing buffer and the residual [^3H]PGD2 bound to the filter was quantified by liquid scintillation counting. Specific binding was defined as the difference between total binding and non-specific binding, determined in the presence of 1 mM PGD2.
The cloned human DP receptor was transfected into COS-M6 cells and [^3H]PGD2 binding assays were performed with membranes prepared from the transfected cells. […] The rank order of affinity for prostaglandins and related synthetic analogs at the human DP receptor was therefore: BW245C>PGD2>BW868C>PGE2>PGF2a=iloprost>U46619. This rank order of potency has been predicted for the DP receptor from previous pharmacological studies.

The target of assay [2] is T1, human prostaglandin D2 (DP) receptor. Description: cAMP assay in HEK293 (EBNA) cells stably expressing the DP receptor. The class given is cell-based. The settings on record: for EC50: 15 min at 37° C., 100 μM RO-20-1724, read-out: EC50, increase in intracellular cAMP production; for cAMP production: concentrations up to 1 μM. On the procedure:
FIG. 5—Increases in intracellular cAMP production in HEK293 (EBNA) cells stably expressing the DP receptor is shown. cAMP assays were performed as described in Example 7. The pmoles of cAMP produced per 1.5×10^5 cells at each ligand concentration was determined for PGD2 (n), the DP receptor agonist BW245C (●), the DP antagonist BW868C (♦), PGE2 (▴), PGE1 ( ? ), PGF2α (▾), iloprost (□) and the TP-receptor agonist U46619 (∘), over a concentration range up to 1 μM.
The recently cloned human prostaglandin D2 (DP) receptor was subcloned into the pCEP4 plasmid (Invitrogen) and transfected into HEK293 (EBNA) cells by the cationic liposome-mediated transfer of DNA using LipofectAMINE™ (Gibco/BRL) reagent. Cells were maintained in culture for 48 h post transfection and then trypsinized, diluted and replated in the presence 200 μg/ml hygromycin B (Calbiochem) to select for transfected cells. Cells were maintained under selection for 3 weeks to ensure a homogeneous population of cells expressing the DP receptor.
(§1) Increases in intracellular cAMP production following agonist challenge was performed in HEK293 (EBNA) cells expressing the DP receptor and control HEK293 (EBNA) cells. Cells were harvested at approximately 80% confluence by incubation in enzyme-free cell dissociation buffer (Gibco/BRL), washed once with HEPES-buffered Krebs-Ringer solution {1.25 mM MgSO4, 1.5 mM CaCl2, 5 mM KCl, 124 mM NaCl, 8 mM glucose, 1.25 mM KH2PO4, and 25 mM HEPES/KOH (pH 7.4)} and resuspended in the same buffer. The cAMP assay was performed in a final volume of 0.2 ml of HEPES-buffer Krebs-Ringer solution and 100 μM of the phosphodiesterase type IV inhibitor RO-20-1724 (Biomol), to prevent hydrolysis of cAMP. RO-20-1724 and the compounds under evaluation were added to the incubation mixture in dimethyl sulfoxide or ethanol to a final vehicle concentration 0.35% (v/v) which was kept constant in all samples. The reaction was initiated by the addition of 1.5×10^5 cells per incubation. Samples were incubated at 37° C. for 15 min and the reaction was then terminated by immersing the samples in boiling water for 3 minutes. Cell viability was always ≧96% as determined by trypan blue exclusion. Measurement of cAMP was performed by radioimmunoassay using [^125I]cAMP (Amersham International).
(In general: Changes in cAMP serve as a functional read-out for many G protein-coupled receptors.)

Assay [3] has as its system control HEK293 (EBNA) cells. Description: Intracellular calcium [Ca2+]i assay in control HEK293 (EBNA) cells. The class given is cell-based. The settings on record: 1000 nM. On the procedure: (§2) Intracellular calcium [Ca^2+]i measurements were performed with both the DP-HEK293 (EBNA) stable cell line and control HEK293 (EBNA) cells. The cells were harvested with enzyme-free cell dissociation buffer, recovered by centrifugation at 300×g for 5 min at 22° C. and resuspended at 2×10^6 cells/ml in DMEM growth medium without G418 or hygromycin B. The cells were incubated at 37° C., 6% CO2 for 45 min with 2 μM fura-2 AM. Unincorporated fura-2 AM was removed by three washes in HBSS (1.3 mM CaCl2, 5 mM KCl, 0.3 mM KH2PO4, 0.9 mM MgCl2, 138 mM NaCl, 4 mM NaHCO3, 0.3 mM Na2HPO4, 5.6 mM D-glucose) by centrifugation at 300×g, for 5 min at 22° C. The cells were then resuspended at a final concentration of 10^6 cells/ml in HBSS. [Ca^2+]i was measured following agonist challenge of 2*10^6 fura-2 AM loaded cells using a Perkin-Elmer LS-5 spectrophotometer essentially as described (Chan et al., 1994, Journal of Pharmacology and Experimental Therapeutics 269(3): 891-896).
(In general: Calcium flux is commonly read through the fluorescence of an indicator in the cells.)

In a further assay the target is T2, DP receptor (Homo sapiens, UniProt Q13258).
T2 construct: The full length coding cDNA was constructed as follows; expressed in transfected cells
T2 sequence (Q13258 1-359): T1 sequence (Q13258 1-359)
Description: Intracellular calcium [Ca2+]i assay in DP-HEK293 (EBNA) stable cell line. Set-up: [Ca2+]i upon ionophore challenge at end of experiment (viability check): dose or concentration left out as unconfirmed. Format: cell-based. The settings on record: for calcium mobilization [Ca2+]i: DP-expressing HEK293 (EBNA) cells. On the procedure: FIG. 4—Increases in intracellular calcium [Ca^2+]i in HEK293 (EBNA) cells stably expressing the DP receptor is shown. DP-HEK293 (EBNA) cells were harvested and prepared as described in Example 8. […] At the end of each experiment cells were challenged with 1 μM ionomycin to release [Ca^2+]i followed by quenching of the [Ca^2+]i release with 1 mM EDTA.
as §2

Assay [4] deals with control HEK293 (EBNA) cells. Description: cAMP assay in control HEK293 (EBNA) cells. Format: cell-based. The settings on record: 1 μM; for cAMP production in control cells: control HEK293 (EBNA) cells. On the procedure: as §1

The term Ki denotes a measure of affinity in units of concentration, obtained from inhibition or displacement. One may read the EC50 as the concentration needed to bring the measured effect to its halfway point. On to `O=C(O)CCCCCCC1C(=O)NC(=O)N1CCC(O)C1CCCCC1` (stereo not drawn) [BW245C], for which the Ki in assay [1] amounted to 0.9 nM. Further, in assay [2], the EC50 turned out to be 0.6 nM.
For `O=C(O)CCCCCCC1C(=O)N(Cc2ccccc2)C(=O)N1NCC(O)C1CCCCC1` (stereo not drawn) [BW868C], the Ki in assay [1] is 1.7 nM. In assay [2], this compound had a cAMP production of 20 pmol cAMP/1.5×10^5 cells.
`CCCCC[C@H](O)/C=C/[C@H]1C(=O)C[C@H](O)[C@@H]1C/C=C\CCCC(=O)O` [PGD2, Prostaglandin D2]: in assay [1], the Ki stood at 1.1 nM. In assay [2], the “fold less potent than BW245C (cAMP EC50)” value is on record as 10 fold, the EC50 came to 6.4 nM and the cAMP production is on record as greater than 140 pmol cAMP/1.5×10^5 cells. Also, the “change in [Ca2+]i in control cells” value in assay [3] is given as “did not provoke any change”. Moreover, the “calcium mobilization [Ca2+]i” value at DP receptor (10 to 1000 nM) was “increased calcium mobilization”. Further, the “calcium mobilization [Ca2+]i” value on DP receptor (concentrations below 10 nM, versus vehicle) is listed as “failed to induce a response”.
`CCCCC[C@H](O)/C=C/[C@H]1[C@H](O)CC(=O)[C@@H]1CCCCCCC(=O)O` [PGE1]: in assay [4], the “fold less cAMP in control cells than in similarly challenged DP-expressing cells” value is 14 fold and the “cAMP production in control cells” value was determined as 6 pmoles/1.5×10^5 cells.
Take `CCCCC[C@H](O)/C=C/[C@H]1[C@H](O)CC(=O)[C@@H]1C/C=C\CCCC(=O)O` [PGE2]: in assay [4], the “fold less cAMP in control cells than in similarly challenged DP-expressing cells” value came out at 14 fold and the “cAMP production in control cells” value was 6 pmoles/1.5×10^5 cells. Further, in assay [1], the Ki was determined as 101 nM.
`CCCCC[C@H](O)/C=C/[C@@H]1[C@@H](C/C=C\CCCC(=O)O)[C@@H](O)C[C@H]1O` [PGF2a]: in assay [1], the Ki turned out to be 512 nM.
With `CCCCC[C@H](O)/C=C/[C@@H]1[C@@H](C/C=C\CCCC(=O)O)[C@H]2CO[C@@H]1C2` [U46619], the Ki in assay [1] is roughly 1850 nM.
On to `CC#CCC(C)[C@H](O)/C=C/[C@@H]1[C@H]2C/C(=C/CCCC(=O)O)C[C@H]2C[C@H]1O` (stereo partly drawn) [iloprost], for which the Ki in assay [1] came out at 630 nM. Moreover, in assay [2], the EC50 is greater than 500 nM.
Turning to `C[C@H](CCC(=O)O)C[C@H](C)C[C@H](C)C(=O)/C=C(\O)[C@H](C)C[C@H](C)C/C=C/[C@@H](C)[C@@H](O)[C@@H](C)[C@@H](O)C[C@@H]1CC[C@@](C)([C@H]2CC[C@@](C)([C@@H](C)O)O2)O1` [ionomycin], the “[Ca2+]i upon ionophore challenge at end of experiment (viability check)” value on DP receptor was “large increase in [Ca^2+]i”.
